Data taken from patent US20230364032A1, “USE OF 2-HOBA TO TREAT ATHEROSCLEROSIS” (Vanderbilt University, priority 2020, published 2023).
Entries after “also recorded” stand apart in the source; their conditions may differ.

Experiments:
IsoLG = experiment: IsoLG-HOBA adducts/metabolites in liver and heart (LC/MS); format: in vivo, mouse; details: for IsoLG-HOBA adducts in hearts and livers: Ldlr−/− mice after 16 weeks on a western diet
Protocol: To generate an internal standard for quantitation, 10 molar equivalents of the heavy isotope labeled 2-HOBA, [^2H4]2-HOBA, was reacted with synthetic IsoLG^69 overnight in 1 mM triethylammonium acetate buffer to form IsoLG-2-HOBA adducts, and the adducts separated from unreacted [^2H4]2-HOBA and IsoLG by solid phase extraction (Oasis HLB). The isolated reaction products of IsoLG-2-HOBA were scanned by mass spectrometer (Waters Xevo-TQ-Smicro triple quadrupole MS) operating in limited mass scanning mode to identify major products. Additionally, precursor scanning with the product ion set at m/z 111.1 was used to confirm that the detected products were [^2H4]2-HOBA adducts. […] Similar species were seen when IsoLG was reacted with non-labeled 2-HOBA and precursor scanning using product ion m/z 107.1 To identify potential 2-HOBA adducts in tissue of treated animals, the present inventors first generated a list of 18 probable IsoLG-HOBA species [pyrrole, lactam, hydroxylactam based on the in vitro reactions of IsoLG and 2-HOBA and then the anhydro-, dinor-, dinor/anhydro-, tetranor-, and keto-(from oxidation of hydroxyl group) metabolites of each of these three adducts based on previous metabolism studies with prostaglandins and isoprostanes]. The present inventors then analyzed liver homogenate from a 2-HOBA treated mouse using LC/MS with the mass spectrometer operating in positive ion precursor scanning mode and the product ion set to m/z 107.1 and collision energy at 20 eV and looked for the presence of any of these precursor ions. […] M2 m/z 440.3, which mass is consistent with the pyrrole adduct, and M3 m/z 454.3 which mass is consistent with the anhydro-hydroxylactam adduct or the keto-lactam adduct. When then sought to quantify the amount of the putative IsoLG-HOBA adducts in heart and liver samples as there was not sufficient aorta sample remaining from other analysis available to do this analysis.
For these experiments, liver or heart samples from Ldlr^−/− mice treated with 2-HOBA or 4-HOBA were homogenized in 0.5 M Tris buffer solution pH 7.5 containing mixture of antioxidants (pyridoxamine, indomethacin, BHT, TCEP). Total amount of protein in homogenate was determined for normalization. 1 pmol IsoLG-[^2H4]2-HOBA was then added to each homogenate sample as internal standard, the HOBA adducts extracted with ethyl acetate, dried, dissolved in solvent 1 (water with 0.1% acetic acid) and analyzed by LC/MS using Waters Xevo-TQ-Smicro triple quadrupole mass spectrometer operating in positive ion multiple reaction monitoring (MRM) mode, monitoring the following transitions: m/z 438.3→107.1@20 eV for M1; m/z 440→107.1@20 eV for M2; m/z 454→107.1@20 eV for M3; and m/z 476.3→111.1@20 eV for IsoLG-[^2H4]2-HOBA hydroxylactam. Desolvati on temperature: 500° C.; source temperature: 150° C.; capillary voltage: 5 kV, cone voltage: 5 V; cone gas flow 1 L/h; desolvation gas flow 1000 L/h. HPLC condition were as follows: Solvent 1: water with 0.1% acetic acid; Solvent 2, methanol with 0.1% acetic acid; column: Phenomenex Kinetex C8 50×2.1 mm 2.6 u 100 Å, flow rate: 0.4 mL/min; gradient: starting condition 10% B with gradient ramp to 100% B over 3.5 min, hold for 0.5 min, and return to starting conditions over 0.5 min. Abundance for each metabolite was calculated based on the ratio of peak height versus that of internal standard.

F2-IsoP = experiment: Urine F2-isoprostane levels (LC/MS/MS); format: in vivo, mouse; details: Ldlr−/− mice, western diet 16 weeks, 1 g/L; vehicle, 4-HOBA, 2-HOBA compared
Protocol: The urine F2-IsoP levels were measured by LC/MS/MS) from Ldlr^−/− mice consuming a western diet for 16 weeks and treated with 1 g/L 2-HOBA, 4-HOBA, or vehicle. N=5 or 6 per group, p=0.43, Kruskal-Wallis test. Urinary creatinine levels were measured for normalization.

MDA = experiment: HOBA-MDA adducts in macrophages incubated with ox-LDL (LC-MS/MS); format: cell-based, mouse; details: 24 h; for HOBA-MDA (propenal-HOBA) adducts in macrophages: macrophages treated with oxidized LDL, 2-HOBA versus 4-HOBA
Protocol: Peritoneal macrophages were isolated from C57BL/6J mice and incubated with 50 μg/mL ox-LDL, and treated with either 250 μm 2-HOBA or 4-HOBA (18A), or 5 μm of 2-HOBA or 4-HOBA (18B, 18C, 18D) for 24 h. Cell samples were collected and the HOBA-MDA adducts were measured using LC-MS/MS as described in supplemental methods. * p<0.05, One-way ANOVA with Bonferroni's post hoc test.
The scavenger-MDA adducts were extracted, (1) from homogenate of tissue (equivalent of 30 mg) or (2) from cells (1 ml), three times with 500 μl of ethyl acetate. The extract was dried down, resuspended in 100 μl of ACN-water (1:1, v/v with 0.1% formic acid), vortexed, and filtered through a 0.22 μm spin X column. The reactions were analyzed by LC-EST/MS/MS using the column a Phenomenex Kinetex column at a flow rate of 0.1 ml/min. The gradient consisted of Solvent A, water with 0.2% formic acid and solvent B, acetonitrile with 0.2% formic acid. The gradient was as follows: 0-2 min 99.9% A, 2-9 min 99.9-0.1% A, 9-12 min 99.9% B. The mass spectrometer was operated in the positive ion mode, and the spray voltage was maintained at 5,000 V. Nitrogen was used for the sheath gas and auxiliary gas at pressures of 30 and 5 arbitrary units, respectively. The optimized skimmer offset was set at 10, capillary temperature was 300° C., and the tube lens voltage was specific for each compound. SRM of specific transition ions for the precursor ions at m/z 178→107 (propenal-HOBA adduct).

Phospho-Akt (S473) = experiment: Akt signaling in macrophages (phospho-Akt Western blot); format: cell-based, mouse; details: 250 μM, 1 hour; absence and presence of insulin; vehicle, 4-HOBA, 2-HOBA compared
Protocol: WT macrophages were treated with or without vehicle (water), 250 μM 4-HOBA or 2-HOBA for 1 hour, and then incubated with or without 100 nM insulin as indicated for 15 min. Phospho-Akt (S473) and GAPDH were detected by Western Blotting (19A). The band density was quantitated by ImageJ software (19B). Two independent experiments were performed.

[1] = previous in vitro studies; cited from earlier work
[2] = Ldlr−/− mice, Western diet 16 weeks, continuously treated, Mean ± SEM

SMILES: NCc1ccc(O)cc1 [4-HOBA, 4-hydroxybenzylamine, reference compound]
- IsoLG-HOBA adducts in hearts and livers (IsoLG): nondetectable
- urine F2-IsoP levels (F2-IsoP): not different
- HOBA-MDA (propenal-HOBA) adducts in macrophages (MDA): undetectable
- pAKT levels in macrophages (Phospho-Akt (S473)): no difference
- reactivity with lipid dicarbonyls / dicarbonyl scavenging [1]: poor reactivity; also recorded: ineffective

SMILES: NCc1ccccc1O [2-HOBA, 2-hydroxybenzylamine]
- IsoLG-HOBA adducts in hearts and livers (IsoLG): present
- IsoLG-HOBA-M1 level, heart (IsoLG; [2]): 0.74 ± 0.21 nmol/kg
- IsoLG-HOBA-M1 level, liver (IsoLG; [2]): 0.88 ± 0.14 nmol/kg
- IsoLG-HOBA-M2 level, heart (IsoLG; [2]): 0.57 ± 0.35 nmol/kg
- IsoLG-HOBA-M2 level, liver (IsoLG; [2]): 0.82 ± 0.12 nmol/kg
- IsoLG-HOBA-M3 level, heart (IsoLG; [2]): 0.24 ± 0.17 nmol/kg
- IsoLG-HOBA-M3 level, liver (IsoLG; [2]): 4.17 ± 1.85 nmol/kg
- urine F2-IsoP levels (F2-IsoP): not significantly different; also recorded: does not impact
- propenal-2-HOBA, DHP-MDA-2-HOBA and crosslinked MDA-2-HOBA adducts in cells (MDA; cells incubated with 5 μM, ox-LDL): significant levels of propenal-2-HOBA were formed
- HOBA-MDA (propenal-HOBA) adducts in macrophages (MDA): increased; also recorded: readily detected; also recorded: formation of 2-HOBA-MDA adducts
- pAKT levels in macrophages (Phospho-Akt (S473)): no difference; also recorded: does not influence
- reactivity with lipid dicarbonyls / dicarbonyl scavenging [1]: rapidly reacts
